Results on three molecules are retold here after publication PMC5209882, “The Coptotermes gestroi aldo–keto reductase: a multipurpose enzyme for biorefinery applications” (Biotechnology for Biofuels, 2017).

The target of data set [1] is T1, CgAKR-1 (Coptotermes gestroi, UniProt A0A140CVV2).
T1 construct: full-length ORF of 334 residues, N-terminal 6xHis tag (pET-28a, NheI/BamHI), E. coli ArcticExpress (DE3); Ni and size exclusion purified
T1 sequence (A0A140CVV2 1-334): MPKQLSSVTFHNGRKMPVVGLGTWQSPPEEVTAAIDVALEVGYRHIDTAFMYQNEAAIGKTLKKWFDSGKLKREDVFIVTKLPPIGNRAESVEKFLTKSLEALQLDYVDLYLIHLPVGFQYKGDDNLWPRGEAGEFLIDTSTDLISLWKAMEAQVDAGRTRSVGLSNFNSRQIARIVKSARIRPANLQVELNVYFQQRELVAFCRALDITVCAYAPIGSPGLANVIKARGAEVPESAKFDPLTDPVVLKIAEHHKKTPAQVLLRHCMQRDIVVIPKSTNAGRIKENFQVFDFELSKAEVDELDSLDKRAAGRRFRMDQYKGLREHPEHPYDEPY
The experiment in a line: NADPH oxidation at […] nm, varied NADPH. The note with it: 5 mM 2-nitrobenzaldehyde; 50 mM sodium phosphate pH 7.0 (standard assay), 30 °C; Kd apparently from kinetics. Type of data set: biochemical.

Data set [2] has as its target T1, CgAKR-1. Nature of the data set: X-ray crystal structure. The note with it: cofactor-binding site; complex described in text, ligand state not stated explicitly.
Substrate in the data set “purified protein”: O=Cc1ccccc1[N+](=O)[O-]
Nature of the data set: purified protein. The class given is biochemical, Coptotermes gestroi. The conditions noted are these: 0.2 mM NADPH, 50 mM sodium phosphate pH 7.0 (standard assay), 30 °C.

For the molecule `NC(=O)C1=CN([C@@H]2O[C@H](COP(=O)(O)OP(=O)(O)OC[C@H]3O[C@@H](n4cnc5c(N)ncnc54)[C@H](OP(=O)(O)O)[C@@H]3O)[C@@H](O)[C@H]2O)C=CC1` [NADPH], the Kd at CgAKR-1 [1] stood at 60 µM.

Regarding `NC(=O)c1ccc[n+]([C@@H]2O[C@H](COP(=O)(O)OP(=O)(O)OC[C@H]3O[C@@H](n4cnc5c(N)ncnc54)[C@H](OP(=O)(O)O)[C@@H]3O)[C@@H](O)[C@H]2O)c1` [NADP], on CgAKR-1 [2], the X-ray crystal structure entry was “the pocket was mainly delimited by the cofactor (NADP) and nine amino acids”.

B1: CgAKR-1 (Coptotermes gestroi) (protein)
chain: MPKQLSSVTFHNGRKMPVVGLGTWQSPPEEVTAAIDVALEVGYRHIDTAFMYQNEAAIGKTLKKWFDSGKLKREDVFIVTKLPPIGNRAESVEKFLTKSLEALQLDYVDLYLIHLPVGFQYKGDDNLWPRGEAGEFLIDTSTDLISLWKAMEAQVDAGRTRSVGLSNFNSRQIARIVKSARIRPANLQVELNVYFQQRELVAFCRALDITVCAYAPIGSPGLANVIKARGAEVPESAKFDPLTDPVVLKIAEHHKKTPAQVLLRHCMQRDIVVIPKSTNAGRIKENFQVFDFELSKAEVDELDSLDKRAAGRRFRMDQYKGLREHPEHPYDEPY
notes: full-length ORF of 334 residues, N-terminal 6xHis tag (pET-28a, NheI/BamHI), E. coli ArcticExpress (DE3); Ni and size exclusion purified
Turning to B1, in the data set “purified protein”, the Km was determined as 150 µM and the kcat came out at 7.5 s⁻¹.

The term Km denotes the substrate concentration at which the rate is half of its maximum. The term kcat denotes the number of substrate molecules converted per active site and unit of time at saturation.
